From patent US9193744B2, “Heterocyclic nuclear hormone receptor modulators” (AbbVie Inc., priority 2012, dated 2015)

Legend:
[1] = test system: OCN; assay: MG-63 Cell Assay to Measure Bone Markers (inhibition of Vitamin K/Vitamin D-induced OCN); format: cell-based; conditions: Homo sapiens, MG63 cells
Protocol: MG-63 Cell Assay to Measure Bone Markers
MG-63 cells were cultured in culture media containing ascorbic acid (DMEM/F12 supplemented with 10% FBS, 1% HEPES, 100 U/mL-100 μg/mL Pen-Strep, and 100 μg/mL of ascorbic acid) for, minimally, 1 week before study. MG-63 cells were seeded (4E4 cells/well) in 96-well assay plates in culture medium (200 μL/well.) After overnight culture in an incubator set to 37° C., 4.9% CO2, and 90% humidity, media was removed from adherent cells by aspiration and replaced with 100 μL/well assay medium, DMEM/F12 supplemented with 5% Charcoal Stripped Serum, 1% HEPES, 100 U/mL-100 μg/mL Pen-Strep, and 100 μg/mL of ascorbic acid. Compounds were prepared with DMSO and serial diluted (1:3, 1:4, or 1:5) with DMSO in dilution plate(s) to give 10 dilution points for each compound tested. Further dilution (1:250) of compound was made into assay medium and 50 μL/well diluted drug or DMSO/media control was applied to cells. After a 1 h pre-incubation in a temperature, CO2, and humidity controlled incubator, set to 37° C., 50 μL/well of 40 nM Vitamin K and 400 nM Vitamin D that were diluted in assay media were applied to plates. Assay plates, with a final volume of 200 μL/well and final concentrations of 0.1% DMSO, 10 nM Vitamin K, and 100 nM Vitamin D, were returned to incubator for overnight culture. Next, plates were spun at 183 g (1000 rpm in Beckman/Coulter Allegra 6KR centrifuge) for 10 min. Cell-free supenatant (150 μL/well) was collected and OCN was measured by MSD kit, following protocol of manufacturer, and using MSD SECTOR Imager 6000 instrument. Potency of drug to inhibit OCN was determined using the percent reduction of measured OCN in wells with drug compared to control wells without drug, and relative to (100% inhibition) positive control sample of 10 μM prednisolone. Results were represented as IC50 and Emax values. To verify that viable cell numbers were similar across plate(s), and not confounding compound IC50 data interpretation, the remaining 50 μL/well of cells and media (after removal of supernatant) were used to run Cell Titer-Glo Assay per directions of manufacturer.

[2] = molecular target: T1, Glucocorticoid Receptor (GR) (Homo sapiens, UniProt P04150); assay: GR Fluorescence Polarization Assay (PolarScreen Glucocorticoid Receptor Competitor Assay, Red); conditions: fluorescence polarization binding ranges
T1 construct: purchased Invitrogen P2893
T1 sequence (P04150 1-777): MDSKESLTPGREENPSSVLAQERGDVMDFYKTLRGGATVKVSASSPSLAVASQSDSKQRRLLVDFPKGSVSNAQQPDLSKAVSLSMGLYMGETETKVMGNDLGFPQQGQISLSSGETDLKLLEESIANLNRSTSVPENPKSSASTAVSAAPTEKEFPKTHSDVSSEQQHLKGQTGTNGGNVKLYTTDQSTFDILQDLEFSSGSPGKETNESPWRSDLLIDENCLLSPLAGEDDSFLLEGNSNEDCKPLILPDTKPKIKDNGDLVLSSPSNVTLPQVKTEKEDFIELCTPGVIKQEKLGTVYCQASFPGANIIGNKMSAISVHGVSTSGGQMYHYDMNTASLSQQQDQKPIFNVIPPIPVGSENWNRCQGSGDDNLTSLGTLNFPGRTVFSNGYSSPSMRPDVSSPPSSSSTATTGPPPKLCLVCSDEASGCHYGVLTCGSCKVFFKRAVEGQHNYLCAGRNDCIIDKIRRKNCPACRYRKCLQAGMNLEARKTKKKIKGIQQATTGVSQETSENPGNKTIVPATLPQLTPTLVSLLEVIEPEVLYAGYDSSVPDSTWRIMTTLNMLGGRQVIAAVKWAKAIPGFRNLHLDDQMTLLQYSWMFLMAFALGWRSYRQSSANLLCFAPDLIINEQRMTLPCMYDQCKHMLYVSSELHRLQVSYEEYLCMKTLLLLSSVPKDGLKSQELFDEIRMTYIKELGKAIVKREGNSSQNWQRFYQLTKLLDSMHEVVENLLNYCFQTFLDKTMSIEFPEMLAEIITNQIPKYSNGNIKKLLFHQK
Summary of the method: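 Competitive fluorescence polarization using a red fluorescent glucocorticoid tracer and GR in kit buffer. Compounds in 1:4 DMSO serial dilution, incubated with tracer and receptor overnight at 4° C before polarization read-out.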

[3] = test system: IL-6; assay: A549 Cell Assay to Measure Inflammation Markers (inhibition of IL-1β-induced IL-6); format: cell-based; conditions: Homo sapiens; A549 cells; read-out: A549 cell assay
Summary of the method: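 A549 cells pre-incubated 1 h with compound (10-point dilution, 0.1% DMSO final) in charcoal-stripped serum medium, then stimulated 4 h with 1 ng/mL IL-1β at 37° C. Supernatant IL-6 measured by MSD immunoassay; IC50 and Emax relative to 1 μM prednisolone as 100% inhibition; viability checked by CellTiter-Glo.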

Measured: IC50

COC[C@]1(O)CC[C@]2(Cc3ccccn3)c3cc4cnn(-c5ccc(F)cc5)c4cc3CCC[C@@H]2C1 (single isomer, unassigned) [Example 13]
< 100 nM: all assays above
